Here are results for two compounds from ChEMBL document CHEMBL1201862, “PubChem BioAssay data set” (2004).

Assay [1] relates to BJ. Nature of the assay: cytotoxicity toward BJ-TERT fibroblasts, dose response, cell-based, RAS-independent, luminescence (AID 1933). The format is functional. The settings on record: Homo sapiens.
Assay [2] relates to BJ. Nature of the assay: cells. It counts as functional, cell-based. The note with it: Homo sapiens.
For another assay, the target named is Ion channel NompC (Danio rerio, UniProt Q7T1G6). Nature of the assay: Dose response cell-based high-throughput screening assay for agonists of the transient receptor potential channel N1 (TRPN1). [Related pubchem assays (depositor defined):AID1424, AID1448]. It counts as functional.
The nature of assay [3]: inhibitors of intracellular T. cruzi replication, confirmation, NIH3T3 host cells, beta-gal luminescence (AID 2044).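 Note: intracellular parasites grown in NIH/3T3 mouse fibroblasts as host cells; luminescent beta-galactosidase reporter signal from transgenic T. cruzi replicating inside host cells; inhibitors lower the luminescence signal.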 It counts as functional, cell-based.
The target in a further assay is Mucolipin-3 (Homo sapiens, UniProt Q8TDD5). Put plainly: Fluorescence counterscreen assay for […] agonists: dose response cell-based high-throughput screening assay to identify agonists of the transient receptor potential channel ML3 (TRPML3). [Related pubchem assays: 1424, 1448 ]. It counts as functional.
Assay [4] can be described thus: cytotoxicity toward NIH3T3 fibroblasts, dose response, counter-screen, cell-based, ATP luminescence, mouse fibroblasts (AID 2010).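 Note: cells exposed to compound for about 90 hours before reading.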 The format is functional.
For assay [5], the system named is BJ. Put plainly: cytotoxicity toward BJ-TERT-LT-ST fibroblasts, dose response, cell-based, RAS-independent, luminescence (AID 1935).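 Note: BJ fibroblasts immortalized with TERT plus LT and ST oncogenes.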 The format is functional. The note with it: Homo sapiens.
The nature of assay [6]: cytotoxicity toward DRD oncogenic fibroblasts, dose response, cell-based, non-viral oncogenic, luminescence (AID 1934). The format is functional. The note with it: Homo sapiens.
Assay [7] is described as follows: THP-1 cell cytotoxicity, dose response, cytotoxicity control for non-replicating M. tuberculosis project (AID 489025). The format is functional.
Assay [8] in a line: HepG2 cell cytotoxicity, dose response, cytotoxicity control for non-replicating M. tuberculosis project (AID 489018). The format is functional. The note with it: Mycobacterium tuberculosis.
For assay [9], the target named is Eukaryotic translation initiation factor 4E (Mus musculus, UniProt P63073). Nature of the assay: eIF4E–eIF4G protein interaction inhibitors, dose response, biochemical, TR-FRET (AID 855).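 Note: potency for disrupting eIF4E binding to eIF4GI seen as loss of FRET.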 The format is functional.
Assay [10] in a line: Vero E6 cell cytotoxicity, dose response, cytotoxicity control for non-replicating M. tuberculosis project, secondary assay (AID 492998). It counts as functional, VeroE6. The note with it: Vero C1008.
The nature of assay [11]: cells. The format is functional.
The nature of assay [12]: Shn3 3'UTR reporter inhibitors, dose response, cell-based, Clone20 osteoblasts, firefly luciferase, cherry-picked (AID 624132).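 Note: firefly luciferase luminescence from reporter carrying the Shn3 3'UTR in osteoblasts.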 It counts as functional.
A short description of assay [13]: HepG2 cell cytotoxicity, dose response, cytotoxicity control for Shn3 inhibitor project, CellTiter-Glo, cherry-picked (AID 624134). It counts as functional, cell-based.
Assay [14] in a line: control 3'UTR Renilla luciferase suppression, dose response, counter-screen for Shn3 inhibitor project, cell-based, Clone20-Shn3RL, cherry-picked (AID 624133). It counts as functional.
Assay [15] concerns Streptococcus sp. 'group A'. Nature of the assay: growth inhibition of control SK(-) GAS strain, dose response, counter-screen for streptokinase expression inhibitor project, luminescence, kanamycin, BacTiterGlo, confirmation (AID 1900). It counts as functional, organism-based.
Assay [16] in a line: cells. It counts as functional, cell-based.
The target in assay [17] is T1, SUMO-activating enzyme (Homo sapiens, UniProt Q9UBT2). Nature of the assay: SUMOylation inhibitor hit validation, confirmation, SUMOylation inhibitor project, biochemical, AlphaScreen (AID 2018). It counts as functional.
In assay [18] the target is T1, SUMO-activating enzyme. Nature of the assay: inhibitors of in vitro SUMOylation cascade, primary screen, biochemical, HTRF, uHTS (AID 2006). The format is protein-complex assay.
The nature of assay [19]: cells. It counts as functional, cell-based. This is another data set of the same source.
The next assay concerns Streptococcus. Nature of the assay: Group A Streptococcus viability loss, dose response, counter-screen for streptokinase expression inhibitor project, luminescence, BacTiterGlo (AID 1915).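 Note: potency for reduction of bacterial viability or growth.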 The format is functional, organism-based.
Assay [20] is described as follows: Luminescence Cell-Based Dose Retest to Confirm Inhibitors of Cancer Stem Cells. [Related pubchem assays (depositor defined):AID2717, AID2721]. It counts as functional. The note with it: Homo sapiens.
A further assay relates to INS1. Put plainly: beta cell apoptosis inhibitors, cytokine rescue, dose response, luminescence, retest (AID 449756).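 Note: cell death triggered by IL-1 beta plus TNF-alpha plus IFN-gamma mixture; protective hits raise ATP signal compared with cytokine alone wells.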 The settings on record: Rattus norvegicus. It counts as functional, cell-based.
The target of the next assay is Albumin (Bos taurus, UniProt P02769). Put plainly: Counterscreen for inhibitors of T-cell receptor (TCR)-CD3 interaction: Fluorescence-based biochemical high throughput dose response assay to identify inhibitors of T-cell receptor (TCR)-CD3 interaction using a TAMRA-labeled BSA probe. The format is functional.

Molecules are shown by their SMILES. Calls of active or inactive are those of the source.

T1 sequence (Q9UBE0 whole entry): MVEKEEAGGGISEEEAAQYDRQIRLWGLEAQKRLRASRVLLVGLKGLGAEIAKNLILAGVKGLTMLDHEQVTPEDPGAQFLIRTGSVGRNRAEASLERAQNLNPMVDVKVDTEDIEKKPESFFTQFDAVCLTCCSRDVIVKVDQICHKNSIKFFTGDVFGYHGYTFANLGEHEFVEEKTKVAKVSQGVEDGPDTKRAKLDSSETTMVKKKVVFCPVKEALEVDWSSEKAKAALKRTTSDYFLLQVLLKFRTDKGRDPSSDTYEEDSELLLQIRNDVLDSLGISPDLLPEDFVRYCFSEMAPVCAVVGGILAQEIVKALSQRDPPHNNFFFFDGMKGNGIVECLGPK
T1 sequence (Q9UBT2 whole entry): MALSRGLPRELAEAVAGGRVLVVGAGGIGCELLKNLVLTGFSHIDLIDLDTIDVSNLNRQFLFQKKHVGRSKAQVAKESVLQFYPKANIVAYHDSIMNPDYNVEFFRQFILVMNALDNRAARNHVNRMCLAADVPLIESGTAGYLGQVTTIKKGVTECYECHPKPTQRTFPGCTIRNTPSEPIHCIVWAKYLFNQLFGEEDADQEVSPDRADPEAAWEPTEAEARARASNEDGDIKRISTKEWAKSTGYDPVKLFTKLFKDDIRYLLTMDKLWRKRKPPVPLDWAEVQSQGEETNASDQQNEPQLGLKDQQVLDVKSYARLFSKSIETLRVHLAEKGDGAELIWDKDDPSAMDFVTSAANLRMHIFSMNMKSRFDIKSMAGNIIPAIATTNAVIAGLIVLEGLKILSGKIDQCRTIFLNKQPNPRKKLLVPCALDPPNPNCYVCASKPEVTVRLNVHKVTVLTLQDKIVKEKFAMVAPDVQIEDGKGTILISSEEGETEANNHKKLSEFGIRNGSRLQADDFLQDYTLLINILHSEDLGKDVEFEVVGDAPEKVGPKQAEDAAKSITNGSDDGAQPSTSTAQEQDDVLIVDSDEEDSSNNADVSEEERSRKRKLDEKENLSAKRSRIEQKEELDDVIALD
Eukaryotic translation initiation factor 4E, sequence (P63073 whole entry): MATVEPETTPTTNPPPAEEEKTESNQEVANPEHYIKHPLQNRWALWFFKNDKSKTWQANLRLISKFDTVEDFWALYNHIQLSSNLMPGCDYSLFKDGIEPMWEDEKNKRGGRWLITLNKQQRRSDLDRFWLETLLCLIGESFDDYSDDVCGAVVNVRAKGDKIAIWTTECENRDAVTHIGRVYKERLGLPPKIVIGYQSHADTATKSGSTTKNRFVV
Albumin, sequence (P02769 whole entry): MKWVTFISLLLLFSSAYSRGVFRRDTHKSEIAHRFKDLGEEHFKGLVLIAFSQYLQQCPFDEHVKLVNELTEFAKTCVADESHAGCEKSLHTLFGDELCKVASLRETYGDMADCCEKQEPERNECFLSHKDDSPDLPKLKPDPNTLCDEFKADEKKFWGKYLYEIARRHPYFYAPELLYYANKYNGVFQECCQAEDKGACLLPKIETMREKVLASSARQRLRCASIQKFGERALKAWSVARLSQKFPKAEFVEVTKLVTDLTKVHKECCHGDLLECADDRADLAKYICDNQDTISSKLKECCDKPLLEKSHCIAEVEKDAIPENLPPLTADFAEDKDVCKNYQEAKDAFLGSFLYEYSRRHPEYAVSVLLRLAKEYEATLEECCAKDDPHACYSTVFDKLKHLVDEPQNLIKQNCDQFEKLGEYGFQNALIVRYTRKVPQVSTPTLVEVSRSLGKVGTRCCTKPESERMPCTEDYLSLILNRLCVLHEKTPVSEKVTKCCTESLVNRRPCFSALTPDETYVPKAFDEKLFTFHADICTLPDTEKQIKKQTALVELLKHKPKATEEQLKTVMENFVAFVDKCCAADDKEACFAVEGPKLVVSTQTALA
Mucolipin-3, sequence (Q8TDD5 whole entry): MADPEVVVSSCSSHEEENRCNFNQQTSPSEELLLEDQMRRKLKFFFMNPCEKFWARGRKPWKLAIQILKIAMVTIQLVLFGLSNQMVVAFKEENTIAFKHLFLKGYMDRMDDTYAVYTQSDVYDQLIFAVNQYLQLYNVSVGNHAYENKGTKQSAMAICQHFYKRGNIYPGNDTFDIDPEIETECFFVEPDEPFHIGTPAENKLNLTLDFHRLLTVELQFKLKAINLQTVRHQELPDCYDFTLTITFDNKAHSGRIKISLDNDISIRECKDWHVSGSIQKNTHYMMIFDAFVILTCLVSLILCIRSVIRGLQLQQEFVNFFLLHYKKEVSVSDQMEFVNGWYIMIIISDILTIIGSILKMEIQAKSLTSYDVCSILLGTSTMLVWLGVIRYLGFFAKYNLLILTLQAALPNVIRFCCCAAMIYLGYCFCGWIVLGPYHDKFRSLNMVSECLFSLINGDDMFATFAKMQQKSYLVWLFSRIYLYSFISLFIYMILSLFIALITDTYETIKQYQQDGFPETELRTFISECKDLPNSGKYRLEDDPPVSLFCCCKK
Ion channel NompC, sequence (Q7T1G6 whole entry): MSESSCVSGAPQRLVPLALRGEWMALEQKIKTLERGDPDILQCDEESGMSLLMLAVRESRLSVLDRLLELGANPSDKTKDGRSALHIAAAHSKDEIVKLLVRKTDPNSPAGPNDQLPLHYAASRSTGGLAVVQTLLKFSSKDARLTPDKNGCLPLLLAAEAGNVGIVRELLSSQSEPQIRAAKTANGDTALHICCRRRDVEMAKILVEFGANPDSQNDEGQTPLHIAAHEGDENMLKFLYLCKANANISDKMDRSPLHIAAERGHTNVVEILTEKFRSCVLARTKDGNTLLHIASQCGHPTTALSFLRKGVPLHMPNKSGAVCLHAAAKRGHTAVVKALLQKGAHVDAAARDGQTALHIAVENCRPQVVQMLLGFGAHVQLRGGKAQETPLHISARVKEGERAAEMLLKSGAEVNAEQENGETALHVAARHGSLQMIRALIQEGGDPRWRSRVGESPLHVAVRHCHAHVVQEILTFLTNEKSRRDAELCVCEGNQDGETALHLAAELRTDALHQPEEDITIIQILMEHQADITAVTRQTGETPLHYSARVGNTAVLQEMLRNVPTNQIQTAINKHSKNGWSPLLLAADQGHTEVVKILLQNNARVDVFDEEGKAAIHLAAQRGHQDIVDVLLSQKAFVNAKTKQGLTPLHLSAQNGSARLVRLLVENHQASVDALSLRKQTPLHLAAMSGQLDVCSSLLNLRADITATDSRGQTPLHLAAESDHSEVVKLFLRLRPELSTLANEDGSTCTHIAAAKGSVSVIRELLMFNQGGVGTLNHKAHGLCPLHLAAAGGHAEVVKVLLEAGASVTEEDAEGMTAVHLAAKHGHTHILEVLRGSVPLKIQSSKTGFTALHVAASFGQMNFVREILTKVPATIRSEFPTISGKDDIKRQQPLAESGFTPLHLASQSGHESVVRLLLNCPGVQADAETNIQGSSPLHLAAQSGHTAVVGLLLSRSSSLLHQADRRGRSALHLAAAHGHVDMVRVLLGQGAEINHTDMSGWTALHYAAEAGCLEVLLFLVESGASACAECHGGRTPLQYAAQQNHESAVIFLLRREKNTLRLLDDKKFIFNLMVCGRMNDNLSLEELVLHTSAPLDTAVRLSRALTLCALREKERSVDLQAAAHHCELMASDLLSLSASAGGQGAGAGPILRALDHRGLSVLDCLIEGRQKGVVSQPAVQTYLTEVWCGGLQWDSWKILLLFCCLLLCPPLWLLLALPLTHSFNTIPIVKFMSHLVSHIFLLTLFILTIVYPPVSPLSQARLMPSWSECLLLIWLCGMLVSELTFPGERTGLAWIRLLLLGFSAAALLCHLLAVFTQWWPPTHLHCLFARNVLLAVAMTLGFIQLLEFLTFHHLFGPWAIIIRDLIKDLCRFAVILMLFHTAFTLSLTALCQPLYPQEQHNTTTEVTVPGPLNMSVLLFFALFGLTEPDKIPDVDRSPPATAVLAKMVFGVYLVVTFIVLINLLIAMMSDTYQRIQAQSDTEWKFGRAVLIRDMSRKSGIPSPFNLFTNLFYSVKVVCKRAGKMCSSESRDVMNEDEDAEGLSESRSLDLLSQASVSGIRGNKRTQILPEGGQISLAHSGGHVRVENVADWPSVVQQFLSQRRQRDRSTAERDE

As for `Cc1cc(N2CCCCC2)nc(NCc2ccccc2)n1`, the EC50 was 17.4 µM (active) with BJ [1]; 21.4 µM (active) in the assay with BJ [2]; > 3.32 µM (inactive) on Ion channel NompC; 2.04 µM (active) in [3]; > 3.32 µM (active) at Mucolipin-3; > 60 µM (not active) in assay [4]. Further, the results for the EC50 (in the assay with BJ [5]; in assay [6]) were > 75 µM (inconclusive) and 25.9 µM (active), respectively. Besides, the CC50 is 8.56 µM (active) in assay [7], > 20 µM (active) in assay [8] and > 20 µM (active) in assay [10]. The IC50 in assay [9] was > 64 µM (inactive); in the assay “cells [11]”, 40.2 µM (active). Besides, the results for the half-maximal activity concentration (AC50) in assay [12], in [13] and in [14] were 4.01 µM (active), 54.8 µM (active) and 6.27 µM (active), respectively.

For the compound `O=c1c2ccccc2nc(COc2ccccc2)n1/N=C/c1cc([N+](=O)[O-])ccc1O`, the EC50 was 5.71 µM (active) in assay [15], 24.3 µM (active) in the assay “cells [16]”, 22.8 µM (active) in “cells [19]” and 4.65 µM (active) with Streptococcus. The IC50 on SUMO-activating enzyme [17] is 0.99 µM (active); at SUMO-activating enzyme [18], 32.1 µM (active); on Albumin, > 94.1 µM (inactive). In addition, the AC50 in assay [20] was 10.2 µM (active); in the assay on INS1 it was 3.74 µM (active).
